Results reported in the NIST ThermoML archive (doi:10.1016/j.tca.2006.12.010).

Assays:
[1] = Molar enthalpy of transition or fusion; conditions: Crystal; Resistive pulse heating
[2] = 101.33 kPa, Resistive pulse heating

[V] [vanadium]
Conditions	Molar enthalpy of transition or fusion [kJ/mol]
[1]	20.7

thermal conductivity [W/m/K], [2]
Conditions	Crystal	Liquid
2199 K	41.35	39.08
2250 K	–	39.8
2300 K	–	40.49
2350 K	–	41.17
2400 K	–	41.82
2450 K	–	42.46
2500 K	–	43.08
2550 K	–	43.68
2600 K	–	44.26
2650 K	–	44.83
2700 K	–	45.37
2750 K	–	45.91
2800 K	–	46.42
2850 K	–	46.91
2900 K	–	47.39
